Laboratory results: US9062024B2, “Nitrogen-containing heterocyclic compound and salt thereof, and a fungicide for agricultural and horticultural use” (Nippon Soda Co., Ltd., priority 2009, dated 2015)

Row | Structure (SMILES) | melting point
1 | c1ccc2c(c1)NCCN=C2c1cnc2ccccc2c1 | 201 to 202 °C
2 | CC(=O)N1CCN=C(c2cnc3ccccc3c2)c2ccccc21 | 187 to 189 °C
3 | CC1(C)CCN=C(c2cnc3ccccc3c2)c2ccccc21 [Compound B2-25, 5,5-dimethyl-1-(3-quinolinyl)-4,5-dihydro-3H-2-benzazepine] | 121 to 123 °C
4 | CC1(C)CN=C(c2cnc3ccccc3c2)c2ccccc2C1 [Compound B2-3, 4,4-dimethyl-1-(3-quinolinyl)-4,5-dihydro-3H-2-benzazepine] | 115 to 116 °C
